Laboratory results as given in publication PMC7494739, “Evaluation of Artificial Intelligence in Participating Structure-Based Virtual Screening for Identifying Novel Interleukin-1 Receptor Associated Kinase-1 Inhibitors” (Frontiers in Oncology, 2020).

Tests used:
IRAK1 kinase = IRAK1 kinase (Homo sapiens, UniProt P51617); assay: IRAK1 bioactivity test (mobility shift assay); format: biochemical; conditions: for IC50: Table 3, initial concentration 100 μM, serial 10-fold dilution to 1 nM
IRAK1 [1] = conditions: Figure 1; cited from earlier work
IRAK1 [2] = conditions: Figure 1; cited from earlier work; remark: listed apart in the source

IRAK1 kinase, sequence (P51617 whole entry): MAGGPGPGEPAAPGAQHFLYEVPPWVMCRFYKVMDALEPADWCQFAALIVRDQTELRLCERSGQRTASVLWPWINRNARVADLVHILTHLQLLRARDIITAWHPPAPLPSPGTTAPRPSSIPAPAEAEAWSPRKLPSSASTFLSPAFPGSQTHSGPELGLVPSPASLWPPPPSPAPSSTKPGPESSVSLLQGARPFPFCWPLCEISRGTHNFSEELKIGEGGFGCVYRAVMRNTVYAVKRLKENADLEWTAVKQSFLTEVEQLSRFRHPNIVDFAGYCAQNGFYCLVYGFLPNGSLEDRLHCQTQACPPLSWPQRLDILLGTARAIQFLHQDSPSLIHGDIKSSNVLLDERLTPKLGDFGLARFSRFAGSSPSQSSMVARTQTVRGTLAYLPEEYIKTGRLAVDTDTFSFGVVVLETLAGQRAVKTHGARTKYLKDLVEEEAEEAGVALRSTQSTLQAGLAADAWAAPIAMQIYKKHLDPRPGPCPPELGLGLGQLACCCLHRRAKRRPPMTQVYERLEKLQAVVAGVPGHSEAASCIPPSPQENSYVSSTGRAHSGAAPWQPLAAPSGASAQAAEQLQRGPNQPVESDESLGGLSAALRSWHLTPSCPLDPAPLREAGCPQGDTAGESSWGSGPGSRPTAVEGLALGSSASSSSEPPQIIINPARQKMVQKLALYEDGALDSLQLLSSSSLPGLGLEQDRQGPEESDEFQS

IC50 (IRAK1 kinase) [nM]	SMILES	IC50 (IRAK1 [1]) [nM]	further results
23700	COc1ccc(C(=O)c2coc3ccc(OCC(N)=O)cc23)cc1OC [compound 5]	–	–
18000	NC(=O)COc1ccc2occ(C(=O)c3ccc(Cl)cc3)c2c1 [compound 4]	–	–

The remaining lines, values behind:

SMILES	IC50 (IRAK1 kinase) [nM]	IC50 (IRAK1 [1]) [nM]	further results
O=C(Nc1nc2ccccc2n1CCN1CCOCC1)c1cccc([N+](=O)[O-])c1 [benzimidazole derivative 1]	–	300	–
CC(C)NC(=O)[C@H]1CC[C@@H](n2/c(=N/C(=O)c3cc(F)cc(F)c3)[nH]c3ccc(CN4CCC(C(C)(C)O)CC4)cc32)CC1 [ALK inhibitor 2]	–	–	Kd (IRAK1 [2]): 5.6 nM
COc1cccc(Nc2nnc(-c3cc4ccc(O)cc4oc3=O)s2)c1 [K231-1211]	–	–	Inhibition/% (IRAK1 kinase; compound at 20 μM): -10.5%
C1=C/COCc2cc(ccc2OCCN2CCCC2)Nc2nccc(n2)-c2cccc(c2)COC/1 [JAK/FLT3 inhibitor 3, Pacritinib]	–	13.6	–
